Here are results for 13 compounds from patent publication US9540389B2, “Antimicrobial potentiators” (priority 2013, dated 2017).

One assay deals with Escherichia coli AB1157. As to the kind of experiment: MIC assay (microbroth dilution) ± 25 μM EPI. Format: cell-based. The conditions noted are these: for MICs (μg/ml) ± EPIs: MBX2319 / MICs (μg/ml) ± EPIs: PAβN / MICs (μg/ml) ± EPIs: None: E. coli AB1157 (WT), geometric mean; for MICs (μg/ml) ± EPIs: MBX2319: + 25 μM MBX2319; for MICs (μg/ml) ± EPIs: PAβN: + 25 μM PAβN; for MICs (μg/ml) ± EPIs: None: no EPI; for MIC Ratio MBX2319 / MIC Ratio PAβN: E. coli AB1157; for MIC Ratio MBX2319: MIC no cmpd/MIC + 25 μM MBX2319; for MIC Ratio PAβN: MIC no cmpd/MIC + 25 μM PAβN; for MIC: Escherichia coli, AB1157, read-out: MICs (μg/ml) ± EPIs: None. The source says:
(§1) • Strains and Reagents. The following strains were obtained from the Keio collection (Baba, et al.: Construction of Escherichia coli K-12 in-frame, single-gene knockout mutants: the Keio collection. In Mol Syst Biol, vol. 2, pp. 2006 0008, (2006)): JW0451 (ΔacrB::kan), JW5503 (ΔtolC::kan), JW3234 (ΔacrF::kan), JW2661 (ΔemrB::kan), JW0863 (ΔmacB::kan). The deletion mutations in each of these strains were transferred to AB1157 using P1 phage transduction (see Table 1). The construction of the E. coli cell-based reporter strain (SOS-XXX) that was used for high throughput screening is described in detail in the supplementary information. […] Irgasan was a generous gift from Ciba Speciality Chemicals, Inc. (High Point, N.C.). Hoechst 33342 (H33342) was purchased from Molecular Probes (Eugene, Oreg.). […] Luria Broth (Miller) and agar were purchased as prepared dehydrated media from Becton Dickenson (Franklin Lakes, N.J.). The compound libraries used in high-throughput screens were purchased from Chembridge (San Diego, Calif.), ChemDiv (San Diego, Calif.), and TimTec (Newark, Del.). MBX2319 was synthesized by Microbiotix, Inc. • Antibacterial Activity Assays. The minimal inhibitory concentration (MIC) of antibacterial agents and biocides were determined using the microbroth dilution method essentially as described in the CLSI protocol M7-A7 (CLSI: Method for dilution antimicrobial susceptibility testing for bacteria that grow aerobically; Approved standard-document M7-A7. In Clinical and Laboratory Standards Institute document M7-A7, Clinical and Laboratory Standards Institute, Wayne, Pa., (2006)), with the following exceptions. LB media was used instead of MHB. […] The final concentration of DMSO in each assay was 2%. […] MIC assays were performed in triplicate and the geometric mean was calculated. Checkerboard MIC assays using an EPI and an antibacterial agent were performed essentially as described (Pillai, et al.: Antimicrobial Combinations. In Antibiotics in Laboratory Medicine, ed. by V. Lorian, pp. 365-440, Lippincott Williams & Wilkins, Philadelphia, Pa., (2005)), with the same modifications used for the MIC assays described above. • Time-Kill Assays. Killing curve assays were performed essentially as described (Pillai, et al.: Antimicrobial Combinations. In Antibiotics in Laboratory Medicine, ed. by V. Lorian, pp. 365-440, Lippincott Williams & Wilkins, Philadelphia, Pa., (2005)). Exponential bacterial cultures grown in LB were diluted to a cell density of ˜1×10^7 in LB followed by addition of CIP and/or an EPI. Viability was monitored over 2-4 hours by making serial dilutions in saline and spotting 5 μl of each dilution onto the surface of an LB agar plate in triplicate. Colonies were counted after the plates were incubated at 37° C. for 16-18 hr, colony forming units (CFU) per ml were calculated, and the average and standard deviation for the three replicates was determined. For treatments that decreased CFU/ml below the limit of detection for the spot plating method, the 100 μl samples were diluted into 5 ml LB top agar, were poured onto LB agar plates, and incubated for 18 hr at 37° C. To calculate the fraction of the control for each sample, the average CFU/ml values for treated samples were divided by those from the same sample at 0 h (time=0). Each experiment was repeated at least three times, and a representative experiment is shown. • H33342 Accumulation Assay. The rate of accumulation of the fluorescent dye Hoechst 33342 (H33342), which is a substrate of a wide variety of bacterial efflux pumps (van den Berg van Saparoea, et al., Biochemistry, vol. 44, pp. 16931-16938, (2005)), can be used to estimate the activity of the major efflux pumps in E. coli and many other bacterial species. The H33342 accumulation assay was used to evaluate the effect of EPIs on the activity of the AcrAB-TolC efflux pump in several bacterial species essentially as described (Coldham, et al., J Antimicrob Chemother, vol. 65, pp. 1655-1663, (2010)). […]

In assay [1] the test system is Escherichia coli AB1157 ΔacrB. The experiment in a line: MIC assay (microbroth dilution). Type of assay: cell-based. The conditions noted are these: for MIC Ratio ΔacrB: MIC WT/MIC ΔacrB; for MICs (μg/ml) ΔacrB None: ΔacrB strain, no EPI, geometric mean; for MIC: Escherichia coli, read-out: MICs (μg/ml) ΔacrB None.
Source text: as §1
For orientation: Broth dilution looks for growth in wells or tubes with falling amounts of substance.

For `CC1(C)S[C@@H]2[C@H](NC(=O)[C@H](N)c3ccc(O)cc3)C(=O)N2[C@H]1C(=O)O` [Amoxacillin], in the assay on Escherichia coli AB1157, the “MICs (μg/ml) ± EPIs: MBX2319” value was 4 µg/mL, the “MICs (μg/ml) ± EPIs: PAβN” value amounted to 4 µg/mL, the “MICs (μg/ml) ± EPIs: None” value was found to be 4 µg/mL and the “MIC Ratio MBX2319” value is given as 1. Moreover, the “MIC Ratio PAβN” value in the assay with Escherichia coli AB1157 was found to be 1. Besides, in assay [1], the “MIC Ratio ΔacrB” value is on record as 0.5 and the “MICs (μg/ml) ΔacrB None” value was 8 µg/mL.

Turning to `CC1=C(C(=O)O)N2C(=O)[C@@H](NC(=O)[C@H](N)c3ccccc3)[C@H]2SC1` [Cephalexin], in the assay with Escherichia coli AB1157, the “MICs (μg/ml) ± EPIs: MBX2319” value worked out at 16 µg/mL, the “MICs (μg/ml) ± EPIs: PAβN” value was 16 µg/mL, the “MIC Ratio MBX2319” value was 2 and the “MIC Ratio PAβN” value was 2. For the same compound, the MIC with Escherichia coli AB1157 came to 32 µg/mL. In addition, in assay [1], the MIC worked out at 32 µg/mL and the “MIC Ratio ΔacrB” value stood at 1.

In the case of `O=C(N[C@H](CO)[C@H](O)c1ccc([N+](=O)[O-])cc1)C(Cl)Cl` [Cloramphenicol], in the assay with Escherichia coli AB1157, the “MICs (μg/ml) ± EPIs: MBX2319” value amounted to 2 µg/mL, the “MICs (μg/ml) ± EPIs: PAβN” value was found to be 2 µg/mL, the “MICs (μg/ml) ± EPIs: None” value came out at 8 µg/mL and the “MIC Ratio MBX2319” value was determined as 4. The “MIC Ratio PAβN” value in the assay on Escherichia coli AB1157 is on record as 4. In assay [1], the “MIC Ratio ΔacrB” value was found to be 4 and the “MICs (μg/ml) ΔacrB None” value is 2 µg/mL.

For the compound `Cc1onc(-c2ccccc2Cl)c1C(=O)N[C@@H]1C(=O)N2[C@@H]1SC(C)(C)[C@@H]2C(=O)O` [Cloxacillin], in the assay with Escherichia coli AB1157, the “MICs (μg/ml) ± EPIs: MBX2319” value was 128 µg/mL, the “MICs (μg/ml) ± EPIs: PAβN” value stood at 64 µg/mL, the “MIC Ratio MBX2319” value came out at 2 and the “MIC Ratio PAβN” value was determined as 4. Besides, the MIC in the assay with Escherichia coli AB1157 turned out to be 256 µg/mL. In addition, in assay [1], the MIC turned out to be 4 µg/mL and the “MIC Ratio ΔacrB” value is 64.

Turning to `CN(C)c1ccc(C(=C2C=CC(=[N+](C)C)C=C2)c2ccc(N(C)C)cc2)cc1` [Crystal violet], in the assay with Escherichia coli AB1157, the “MICs (μg/ml) ± EPIs: MBX2319” value was found to be 8 µg/mL, the “MICs (μg/ml) ± EPIs: PAβN” value is 1 µg/mL, the “MIC Ratio MBX2319” value was determined as 2 and the “MIC Ratio PAβN” value was determined as 16. The MIC with Escherichia coli AB1157 was 16 µg/mL. Further, in assay [1], the MIC amounted to 1 µg/mL and the “MIC Ratio ΔacrB” value stood at 16.

Consider `CC[n+]1c(-c2ccccc2)c2cc(N)ccc2c2ccc(N)cc21` [Ethidium Br, Ethidium Bromide], for which, in the assay with Escherichia coli AB1157, the “MICs (μg/ml) ± EPIs: MBX2319” value was found to be 256 µg/mL, the “MICs (μg/ml) ± EPIs: PAβN” value is 16 µg/mL, the “MIC Ratio MBX2319” value was 1 and the “MIC Ratio PAβN” value is reported as 16. In addition, the MIC in the assay on Escherichia coli AB1157 amounted to 256 µg/mL. Besides, in assay [1], the MIC was 8 µg/mL and the “MIC Ratio ΔacrB” value is on record as 32.

As to `Oc1cc(Cl)ccc1Oc1ccc(Cl)cc1Cl` [Irgasan], in the assay on Escherichia coli AB1157, the “MICs (μg/ml) ± EPIs: MBX2319” value was 0.125 µg/mL, the “MICs (μg/ml) ± EPIs: PAβN” value came to 0.031 µg/mL, the “MICs (μg/ml) ± EPIs: None” value was 0.25 µg/mL and the “MIC Ratio MBX2319” value came to 2. Also, the “MIC Ratio PAβN” value in the assay with Escherichia coli AB1157 is 8. In assay [1], the “MIC Ratio ΔacrB” value amounted to 8 and the “MICs (μg/ml) ΔacrB None” value came to 0.031 µg/mL.

Turning to `CCn1cc(C(=O)O)c(=O)c2ccc(C)nc21` [Nalidixic acid], in the assay on Escherichia coli AB1157, the “MICs (μg/ml) ± EPIs: MBX2319” value was found to be 8 µg/mL, the “MICs (μg/ml) ± EPIs: PAβN” value stood at 1 µg/mL, the “MIC Ratio MBX2319” value is recorded as 2 and the “MIC Ratio PAβN” value worked out at 16. For the same compound, the MIC in the assay with Escherichia coli AB1157 is 16 µg/mL. Moreover, in assay [1], the MIC came out at 8 µg/mL and the “MIC Ratio ΔacrB” value is 2.

As for `CCn1cc(C(=O)O)c(=O)c2cc(F)c(N3CCNCC3)cc21` [Norfloxacin], in the assay with Escherichia coli AB1157, the “MICs (μg/ml) ± EPIs: MBX2319” value was 0.063 µg/mL, the “MICs (μg/ml) ± EPIs: PAβN” value was found to be 0.063 µg/mL, the “MIC Ratio MBX2319” value was found to be 1 and the “MIC Ratio PAβN” value is 1. In addition, the MIC in the assay with Escherichia coli AB1157 turned out to be 0.063 µg/mL. In assay [1], the MIC is 0.016 µg/mL and the “MIC Ratio ΔacrB” value stood at 4.

Take `Cc1onc(-c2ccccc2)c1C(=O)N[C@@H]1C(=O)N2[C@@H]1SC(C)(C)[C@@H]2C(=O)O` [Oxacillin]: in the assay with Escherichia coli AB1157, the “MICs (μg/ml) ± EPIs: MBX2319” value came to 64 µg/mL. In addition, the MIC was determined as 512 µg/mL with Escherichia coli AB1157 and 4 µg/mL in assay [1].

For the compound `CO[C@H]1/C=C/O[C@@]2(C)Oc3c(C)c(O)c4c(O)c(c(/C=N/N5CCN(C)CC5)c(O)c4c3C2=O)NC(=O)/C(C)=C\C=C\[C@H](C)[C@H](O)[C@@H](C)[C@@H](O)[C@@H](C)[C@H](OC(C)=O)[C@@H]1C` [Rifampicin], in the assay on Escherichia coli AB1157, the “MICs (μg/ml) ± EPIs: MBX2319” value was found to be 8 µg/mL and the MIC worked out at 8 µg/mL. Moreover, the MIC in assay [1] worked out at 8 µg/mL.

Turning to `CN(C)[C@@H]1C(O)=C(C(N)=O)C(=O)[C@@]2(O)C(O)=C3C(=O)c4c(O)cccc4[C@@](C)(O)[C@H]3C[C@@H]12` [Tetracycline], the MIC in assay [1] amounted to 0.5 µg/mL.

Consider Gentamicin, for which, in the assay on Escherichia coli AB1157, the “MICs (μg/ml) ± EPIs: MBX2319” value worked out at 8 µg/mL, the “MICs (μg/ml) ± EPIs: PAβN” value came to 8 µg/mL, the “MICs (μg/ml) ± EPIs: None” value was determined as 4 µg/mL and the “MIC Ratio MBX2319” value turned out to be 0.5. Besides, the “MIC Ratio PAβN” value in the assay with Escherichia coli AB1157 stood at 0.5. Further, in assay [1], the “MIC Ratio ΔacrB” value was 1 and the “MICs (μg/ml) ΔacrB None” value came out at 4 µg/mL.
